Where two headings read alike, the source gives them in different places. No end group written: not given here.
Legend:
Assay type in all cases: biochemical
tenase = target: T1, tenase (Homo sapiens, UniProt P00740); assay: tenase assay (Factor Xa generation); conditions: read-out: IC50 inhibition of tenase
T1 construct: 30 μl of 3.5 nM factor IXaβ (Enzyme Research Labs) in BBS+OV; purchased Enzyme Research Labs (factor IXaβ, factor X); Armour Pharmaceutical, Chicago (Monoclate P)
Protocol: The tenase assay was conducted both in the presence and absence of Factor VIIIa. The procedure for the tenase assay varied depending on this variable and is described hereafter.
Peptides prepared in Example 1 were dissolved in water and then 1/2 into 50 mM Barbital, 200 mM NaCl, 0.2% NaN3, 2.5 mg/ml Ovalbumin (5 times recrystallized, salt free, from American Biorganics Inc., New York, pH=7.5). […]. Before using them, they were made 250 μM into BBs +1.25 mg/ml Ovalbumin (BBS+OV) containing CaCl2 for a final concentration of 25 mM and they were preincubated for 10 minutes at 37° C. These vesicles were allowed to cool to room temperature before being added to the reaction mixture. Monoclate P (Armour Pharmaceutical, Chicago) 114 U VIII:C/ml frozen in water was thawed at 37° C. and immediately diluted to 6 U/ml into BBS+OV (22° C.). A 0.35 nM thrombin-containing solution (Enzyme Research Labs., Southbend, Ind.) was prepared by admixing 1/100 volume of stock solution containing 35 nM in BBS+OV, and maintained for 3 minutes at 22° C. Thrombin activity was stopped by adding 1/100 volume of a 50 μM stock solution in 1 mM HCl of Phe-Pro-Arg-Chloromethyl ketone (PPACK, Bachem Feinchmikallen AG, Bubendorf, Switzerland). […] The thrombin treated Monoclate P was used immediately in the Xa generation assay.
For the assay, 30 μl of peptide dilutions or BBS+OV as 0 μM peptide control were admixed with 30 μl of thrombin-treated Monoclate P and maintained 10 minutes at 22° C. Then 30 μl of Cacl2 -phospholipid vesicles prepared as described above were added, followed immediately by 30 μl of 3.5 nM factor IXaβ (Enzyme Research Labs) in BBS+OV. The reaction was started by adding 30 μl of 250 nM factor X (Enzyme Research Labs) in BBS+OV. All reagents were at 22° C.
Aliquots of 20 μl were drawn at time 0, 1, 2, 3, 4 and 5 minutes of maintenance at 22° C. and diluted to 160 μl of 50 mM TrisHCl, 100 mM NaCl, 5 mM EDTA and 0.1 mg/ml Ovalbumin pH=8.0. Once all aliquots were drawn, 20 μl 2.0 mM S-2765 were added and the increase of A 405 at 22° C. was recorded in a model EL 312 Microplate Biokinetics Reader (BIO-TEK Instruments Inc., Vermont).
No amidolytic activity was observed when factor X was omitted from the reaction mixture.
Phospholipid vesicles prepared as described above were admixed with BBS+OV containing CaCl2 to obtain final concentrations of 312.5 μM vesicles and 20 mM CaCl2, and were premaintained for 10 minutes at 37° C. Before admixing, all the reagents were maintained for 5 minutes in a 37° C. waterbath.
For the assay, 100 μl of the phospholipid CaCl2 mix were admixed with 100 μl of peptide dilutions in BBS+OV or BBS+OV (as 0 μM peptide control) and 25 μl of 100 nM factor IXaβ in BBS+OV. The reaction was started immediately by adding 25 μl of 10 μM factor X in BBS+OV. All experiments were done at 37° C.
Aliquots of 40 μl were drawn at time 0, 5, 10, 15, 20 and 25 minutes of incubation at 37° C. and diluted to 140 μl 50 mM TrisHCl, 100 mM NaCl, 10 mM EDTA, and 1.25 mg/ml Ovalbumin pH=8.0. Once all aliquots were drawn, 20 μl 20.0 mM S-2765 were added and the increase of A 405 at 22° C. was recorded in a model EL 312 Microplate Biokinetics Reader.

Factor IXa = Factor IXa (Homo sapiens, UniProt P00740); assay: Factor IXa-1 Stage clotting assay
Protocol: The Factor IXa-1 Stage assay was conducted essentially as the Factor Xa-1 Stage clotting assay above, except that Factor Xa was omitted, and Factor IXa was added in its place. In that assay, the IC50 for peptides X404-418, X415-429, IX395-409, IX400-414, IX315-330, and IX321-335 were 50, 30, 25, 50, 30 and 30.

Factor Xa = target: T2, Factor Xa (Homo sapiens, UniProt P00742); assay: Factor Xa clotting activity in NHP without added APC (Factor Xa-1 Stage clotting assay)
T2 construct: purchased Enzyme Research Laboratories, Southbend, Ind

APC = APC (Homo sapiens, UniProt P04070); assay: APTT and Xa-1-stage coagulation assays, inhibition of APC anticoagulant activity; design: Protein C consists of a 155 amino acid residue light chain and a 262 amino acid residue heavy chain; from tissue; host or cells: human plasma factor IX concentrate; conditions: read-out: IC90 ** μM (concentration of peptide that inhibits 90% of APC anticoagulant activity)
Protocol: The effect of the synthetic peptides on APC anticoagulant activity were determined using the APTT assay in the presence of either normal citrate anticoagulated plasma (NHP) or protein S depleted plasma (PSDP). The assays were performed essentially as described. See Marlar et al., Blood, 59:1067-1072 […]; Suzuki et al., J. Biol. Chem., 258:163-168 (1983); Gruber et al., Blood, 73:639-642 (1989); Ohlin et al., Biochem., 29:644-651 (1990). NHP was purchased from George King Bio-Medical, Inc. (Overland Park, Kans.). PSDP was prepared from a normal human citrate-anticoagulated plasma pool from ten healthy donors. Protein S was immunodepleted from the NHP by immunoaffinity chromatography of NHP over an anti-protein S antibody column to form PSDP. The anti-protein S antibody column was prepared by coupling 100 mg of a monoclonal, high-affinity, calcium-independent anti-PS antibody, designated S7, to 30 ml of CNBr-activated Sepharose 4B (Pharmacia) as described in Example 2cl).
For the APTT assay, APC was prepared as described in Example 2c2). […] The concentration of the APC used in the assay was initially optimized with respect to the sensitivity of the assay towards APC-induced prolongation of clotting time compared to clotting time without APC.
Once the optimal concentration of APC was determined, peptides from the heavy and light chains of PC and control scrambled peptides listed below in Example 5a2) in Tables 6 and 7 were then separately admixed for a final concentration of 500 μM with 10 nM APC in 100 μl of TBS-BSA at pH 7.4 to form peptide-APC admixtures. Peptides were prepared as described in Example 1. The resulting admixtures were maintained for ten minutes at 37° C. Separate aliquots of peptides maintained under the same conditions in the absence of APC served as controls for the inhibitory effect of synthetic peptides on APC anticoagulant activity. After the maintenance period, 100 μl of NHP and 100 μl APTT-reagent Thrombosil (Ortho Diagnostics, Raritan, N.J.) were admixed into each peptide admixture and maintained for 200 seconds at 37° C. to form a pre-coagulation admixture. In some experiments, PSDP was used in the place of NHP to determine the effect of Protein S on the assay system. Coagulation was then initiated by the admixture of 100 μl of 30 mM CaCl2 in TBS prewarmed to 37° C. to each of the pre-coagulation admixtures. The time for clot formation was measured by an Electra 700 Automatic Coagulation Timer (Medical Laboratory Automation, Inc., Mount Vernon, N.Y.). Each peptide's effect was determined in duplicate.
For peptides at a concentration of 500 μM that inhibited at least 50% of APC anticoagulant activity, analysis of dose-response was subsequently conducted.
For testing the inhibition of the synthetic peptides on APC activity described above, Xa-1-stage coagulation assays were also performed as described. See Seegers et al., Thrombosis Res., 13:233-243 (1978); Marlar et al., supra; and Walker et al., J. Biol. Chem., 265:1484-1489 (1990).

T1 sequence (P00740 47-191): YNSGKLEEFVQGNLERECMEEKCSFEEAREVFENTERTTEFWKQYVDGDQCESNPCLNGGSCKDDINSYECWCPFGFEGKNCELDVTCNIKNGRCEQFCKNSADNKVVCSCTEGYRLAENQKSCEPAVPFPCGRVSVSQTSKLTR
T1 sequence (P00740 227-461): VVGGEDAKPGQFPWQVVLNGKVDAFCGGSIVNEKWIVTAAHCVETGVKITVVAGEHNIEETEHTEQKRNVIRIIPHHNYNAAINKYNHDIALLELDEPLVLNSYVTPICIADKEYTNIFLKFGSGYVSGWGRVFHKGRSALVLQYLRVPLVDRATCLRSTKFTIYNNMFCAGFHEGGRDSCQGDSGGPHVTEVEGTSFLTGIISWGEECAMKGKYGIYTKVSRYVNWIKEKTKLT
Chain of Factor IXa (P00740 47-191 limits assumed): as the sequence (P00740 47-191) above
Chain of Factor IXa (P00740 227-461 limits assumed): as the sequence (P00740 227-461) above
T2 sequence (P00742 41-179 limits assumed): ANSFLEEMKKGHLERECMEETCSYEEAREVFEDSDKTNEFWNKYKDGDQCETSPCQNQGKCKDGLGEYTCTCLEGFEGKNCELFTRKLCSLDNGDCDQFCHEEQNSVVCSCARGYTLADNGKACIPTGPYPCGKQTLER
T2 sequence (P00742 235-488 limits assumed): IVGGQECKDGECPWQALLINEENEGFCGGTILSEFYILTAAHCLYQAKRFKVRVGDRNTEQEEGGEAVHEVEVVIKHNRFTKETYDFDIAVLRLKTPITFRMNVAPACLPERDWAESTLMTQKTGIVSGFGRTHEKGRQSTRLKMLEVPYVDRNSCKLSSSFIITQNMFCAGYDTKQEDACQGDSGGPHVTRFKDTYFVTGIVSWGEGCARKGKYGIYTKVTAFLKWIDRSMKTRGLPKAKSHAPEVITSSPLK
Chain of APC (P04070 43-197 limits assumed): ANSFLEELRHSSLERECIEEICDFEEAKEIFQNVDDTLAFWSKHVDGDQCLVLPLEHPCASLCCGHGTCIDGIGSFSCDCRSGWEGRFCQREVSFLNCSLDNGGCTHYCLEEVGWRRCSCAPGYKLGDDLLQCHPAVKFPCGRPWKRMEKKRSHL
Chain of APC (P04070 212-450 limits assumed): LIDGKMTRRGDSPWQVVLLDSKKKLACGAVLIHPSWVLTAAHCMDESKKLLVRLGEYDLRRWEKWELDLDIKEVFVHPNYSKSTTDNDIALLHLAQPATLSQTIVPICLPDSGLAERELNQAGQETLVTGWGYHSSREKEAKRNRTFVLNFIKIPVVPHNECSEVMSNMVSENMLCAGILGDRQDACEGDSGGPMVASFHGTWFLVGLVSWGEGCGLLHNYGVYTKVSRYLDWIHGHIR

Substance | IC50 (tenase; absence of VIIIa) | IC50 (tenase; presence of Factor VIIIa) | IC50 (Factor IXa) | IC50 (Factor Xa) | IC90 (APC)
YGIYTKVSRYVNWIK-NH2 [IX395-409, Tyr-Gly-Ile-Tyr-Thr-Lys-Val-Ser-Arg-Tyr-Val-Asn-Trp-Ile-Lys] | 40 to 60 µM | ~6 µM | 25 µM | – | –
YGFYTHVFRLKKWIQ-NH2 [PT557-571, Tyr-Gly-Phe-Tyr-Thr-His-Val-Phe-Arg-Leu-Lys-Lys-Trp-Ile-Gln] | – | – | – | 50 µM | –
VLNFIKIPVVPHNEC-NH2 [PC317-331] | – | – | – | – | 500 µM
LVLQYLRVPLVDRAT-NH2 [IX321-335, Leu-Val-Leu-Gln-Tyr-Leu-Arg-Val-Pro-Leu-Val-Asp-Arg-Ala-Thr] | – | 100 to 140 µM | 30 µM | – | –
VTAFLKWIDRSMKTR-NH2 [X415-429, Val-Thr-Ala-Phe-Leu-Lys-Trp-Ile-Asp-Arg-Ser-Met-Lys-Thr-Arg] | – | ~45 µM | 30 µM | 115 µM | –
GKGQPSVLQVVNLPI-NH2 [PT473-487, Gly-Lys-Gly-Gln-Pro-Ser-Val-Leu-Gln-Val-Val-Asn-Leu-Pro-Ile] | – | – | – | 25 µM | –
NLKETWTANVGKGQP [PT463-478] | – | – | – | > 500 µM | –
ARKGKYGIYTKVTAF-NH2 [X404-418, Ala-Arg-Lys-Gly-Lys-Tyr-Gly-Ile-Tyr-Thr-Lys-Val-Thr-Ala-Phe] | – | ~150 µM | 50 µM | 50 µM | –
KVSRYVNWIKEKTKL-NH2 [IX400-414, Lys-Val-Ser-Arg-Tyr-Val-Asn-Trp-Ile-Lys-Glu-Lys-Thr-Lys-Leu] | – | 100 to 140 µM | 50 µM | – | –
QVVNLPIVERPVSKD-NH2 [PT481-495, Gln-Val-Val-Asn-Leu-Pro-Ile-Val-Glu-Arg-Pro-Val-Ser-Lys-Asp] | – | – | – | > 500 µM | –
EKGRQSTRLKMLEVPY-NH2 [X329-344, Glu-Lys-Gly-Arg-Gln-Ser-Thr-Arg-Leu-Lys-Met-Leu-Glu-Val-Pro-Tyr] | – | – | – | 500 µM | –
HKGRSALVLQYLRVPL-NH2 [IX315-330, His-Lys-Gly-Arg-Ser-Ala-Leu-Val-Leu-Gln-Tyr-Leu-Arg-Val-Pro-Leu] | 40 to 60 µM | ~2 µM | 30 µM | – | –

Reference: US5968751A, “Method for detecting the presence of protein C antibody in a fluid sample” (The Scripps Research Institute, priority 1997, dated 1999)
